# According to publication PMC12102759 (Protein Science : A Publication of the Protein Society, 2025):
# Read-outs that look alike come from different tables or passages of the source.
# Test system: PABPC1 PABC
# Assay type: binding, human
# Details: DMS-BM library, bait PABPC1 PABC, row aa = residue at this position; for DMS-derived PSSM value (averaged), position E8 / DMS-derived PSSM value, position E10 / DMS-derived PSSM value, position E8: E = wild type; for DMS-derived PSSM value, position L4 / DMS-derived PSSM value, position L2: L = wild type
# [1] = prey ATXN2, TLNPNAKEFNPRSF(averaged) over the two overlapping peptides
# [2] = prey ATXN2, peptide TLNPNAKEFNPRSFSQ, T = wild type
# [3] = prey ATXN2, peptide TLNPNAKEFNPRSFSQ, A = wild type
# [4] = prey ATXN2, TLNPNAKEFNPRSF(averaged) over the two overlapping peptides, N = wild type
# [5] = prey ATXN2, peptide KSTLNPNAKEFNPRSF, N = wild type
# [6] = prey ATXN2, peptide KSTLNPNAKEFNPRSF
# [7] = prey ATXN2, TLNPNAKEFNPRSF(averaged) over the two overlapping peptides, K = wild type
# [8] = prey ATXN2, peptide TLNPNAKEFNPRSFSQ, K = wild type
# [9] = prey ATXN2, peptide TLNPNAKEFNPRSFSQ, N = wild type
# [10] = prey ATXN2, peptide TLNPNAKEFNPRSFSQ
# [11] = prey ATXN2, peptide KSTLNPNAKEFNPRSF, S = wild type
# [12] = prey ATXN2, peptide KSTLNPNAKEFNPRSF, P = wild type
# [13] = prey ATXN2, TLNPNAKEFNPRSF(averaged) over the two overlapping peptides, F = wild type
# [14] = prey ATXN2, peptide KSTLNPNAKEFNPRSF, T = wild type
# [15] = prey ATXN2, peptide TLNPNAKEFNPRSFSQ, F = wild type
# [16] = prey ATXN2, peptide TLNPNAKEFNPRSFSQ, P = wild type
# [17] = prey ATXN2, peptide TLNPNAKEFNPRSFSQ, S = wild type
# [18] = prey ATXN2, peptide KSTLNPNAKEFNPRSF, A = wild type
# [19] = prey ATXN2, TLNPNAKEFNPRSF(averaged) over the two overlapping peptides, S = wild type
substance,measurement,setting,value
TLNPNAKEFNPRSF(averaged) E8P (TLNPNAKPFNPRSF),"DMS-derived PSSM value (averaged), position E8",[1],0.1423
TLNPNAKEFNPRSFSQ T1H (HLNPNAKEFNPRSFSQ),"DMS-derived PSSM value, position T1",[2],0.01756
TLNPNAKEFNPRSFSQ A6N (TLNPNNKEFNPRSFSQ),"DMS-derived PSSM value, position A6",[3],0
TLNPNAKEFNPRSF(averaged) N5A (TLNPAAKEFNPRSF),"DMS-derived PSSM value (averaged), position N5",[4],0.00733
TLNPNAKEFNPRSF(averaged) A6P (TLNPNPKEFNPRSF),"DMS-derived PSSM value (averaged), position A6","prey ATXN2, TLNPNAKEFNPRSF(averaged) over the two overlapping peptides, A = wild type",0
KSTLNPNAKEFNPRSF N12L (KSTLNPNAKEFLPRSF),"DMS-derived PSSM value, position N12",[5],0
KSTLNPNAKEFNPRSF L4S (KSTSNPNAKEFNPRSF),"DMS-derived PSSM value, position L4",[6],0
TLNPNAKEFNPRSF(averaged) K7G (TLNPNAGEFNPRSF),"DMS-derived PSSM value (averaged), position K7",[7],0.008693
TLNPNAKEFNPRSFSQ T1N (NLNPNAKEFNPRSFSQ),"DMS-derived PSSM value, position T1",[2],0.02571
TLNPNAKEFNPRSFSQ T1D (DLNPNAKEFNPRSFSQ),"DMS-derived PSSM value, position T1",[2],0.106
TLNPNAKEFNPRSF(averaged) P11Q (TLNPNAKEFNQRSF),"DMS-derived PSSM value (averaged), position P11","prey ATXN2, TLNPNAKEFNPRSF(averaged) over the two overlapping peptides, P = wild type",0.04932
TLNPNAKEFNPRSFSQ K7T (TLNPNATEFNPRSFSQ),"DMS-derived PSSM value, position K7",[8],0.006845
TLNPNAKEFNPRSFSQ N10W (TLNPNAKEFWPRSFSQ),"DMS-derived PSSM value, position N10",[9],0.06015
KSTLNPNAKEFNPRSF E10P (KSTLNPNAKPFNPRSF),"DMS-derived PSSM value, position E10",[6],0.01939
TLNPNAKEFNPRSF(averaged) K7T (TLNPNATEFNPRSF),"DMS-derived PSSM value (averaged), position K7",[7],0.01485
TLNPNAKEFNPRSFSQ L2A (TANPNAKEFNPRSFSQ),"DMS-derived PSSM value, position L2",[10],0
KSTLNPNAKEFNPRSF S2N (KNTLNPNAKEFNPRSF),"DMS-derived PSSM value, position S2",[11],0
TLNPNAKEFNPRSF(averaged) N10V (TLNPNAKEFVPRSF),"DMS-derived PSSM value (averaged), position N10",[4],0.105
KSTLNPNAKEFNPRSF P13Q (KSTLNPNAKEFNQRSF),"DMS-derived PSSM value, position P13",[12],0.08339
KSTLNPNAKEFNPRSF P6Q (KSTLNQNAKEFNPRSF),"DMS-derived PSSM value, position P6",[12],0
TLNPNAKEFNPRSFSQ K7I (TLNPNAIEFNPRSFSQ),"DMS-derived PSSM value, position K7",[8],0.003703
TLNPNAKEFNPRSF(averaged) K7D (TLNPNADEFNPRSF),"DMS-derived PSSM value (averaged), position K7",[7],0.01005
TLNPNAKEFNPRSF(averaged) F14P (TLNPNAKEFNPRSP),"DMS-derived PSSM value (averaged), position F14",[13],0.03538
KSTLNPNAKEFNPRSF T3K (KSKLNPNAKEFNPRSF),"DMS-derived PSSM value, position T3",[14],0
KSTLNPNAKEFNPRSF N12P (KSTLNPNAKEFPPRSF),"DMS-derived PSSM value, position N12",[5],0
KSTLNPNAKEFNPRSF N12D (KSTLNPNAKEFDPRSF),"DMS-derived PSSM value, position N12",[5],0.009433
KSTLNPNAKEFNPRSF K9H (KSTLNPNAHEFNPRSF),"DMS-derived PSSM value, position K9","prey ATXN2, peptide KSTLNPNAKEFNPRSF, K = wild type",0.04428
KSTLNPNAKEFNPRSF T3N (KSNLNPNAKEFNPRSF),"DMS-derived PSSM value, position T3",[14],0.01165
TLNPNAKEFNPRSFSQ T1K (KLNPNAKEFNPRSFSQ),"DMS-derived PSSM value, position T1",[2],0.03828
TLNPNAKEFNPRSFSQ,"DMS-derived PSSM value, position A6",[3],0.3958
same,"DMS-derived PSSM value, position E8",[10],0.1068
same,"DMS-derived PSSM value, position F9",[15],0.2105
same,"DMS-derived PSSM value, position F14",[15],0.06109
same,"DMS-derived PSSM value, position K7",[8],0.0126
same,"DMS-derived PSSM value, position L2",[10],0.3849
same,"DMS-derived PSSM value, position N3",[9],0.2805
same,"DMS-derived PSSM value, position N5",[9],0.009358
same,"DMS-derived PSSM value, position N10",[9],0.0868
same,"DMS-derived PSSM value, position P4",[16],0.1257
same,"DMS-derived PSSM value, position P11",[16],0.07425
same,"DMS-derived PSSM value, position R12","prey ATXN2, peptide TLNPNAKEFNPRSFSQ, R = wild type",0.03868
same,"DMS-derived PSSM value, position S13",[17],0.06246
same,"DMS-derived PSSM value, position S15",[17],0.03177
same,"DMS-derived PSSM value, position T1",[2],0.03795
KSTLNPNAKEFNPRSF N7K (KSTLNPKAKEFNPRSF),"DMS-derived PSSM value, position N7",[5],0.007258
TLNPNAKEFNPRSFSQ N5V (TLNPVAKEFNPRSFSQ),"DMS-derived PSSM value, position N5",[9],0.09342
TLNPNAKEFNPRSFSQ E8Y (TLNPNAKYFNPRSFSQ),"DMS-derived PSSM value, position E8",[10],0.04993
TLNPNAKEFNPRSF(averaged) R12E (TLNPNAKEFNPESF),"DMS-derived PSSM value (averaged), position R12","prey ATXN2, TLNPNAKEFNPRSF(averaged) over the two overlapping peptides, R = wild type",0.01393
TLNPNAKEFNPRSFSQ E8R (TLNPNAKRFNPRSFSQ),"DMS-derived PSSM value, position E8",[10],0
KSTLNPNAKEFNPRSF S2Y (KYTLNPNAKEFNPRSF),"DMS-derived PSSM value, position S2",[11],0.2105
TLNPNAKEFNPRSF(averaged) F14N (TLNPNAKEFNPRSN),"DMS-derived PSSM value (averaged), position F14",[13],0.05683
TLNPNAKEFNPRSFSQ N3L (TLLPNAKEFNPRSFSQ),"DMS-derived PSSM value, position N3",[9],0
KSTLNPNAKEFNPRSF E10N (KSTLNPNAKNFNPRSF),"DMS-derived PSSM value, position E10",[6],0.01939
KSTLNPNAKEFNPRSF S2R (KRTLNPNAKEFNPRSF),"DMS-derived PSSM value, position S2",[11],0.0005784
TLNPNAKEFNPRSF(averaged) N3F (TLFPNAKEFNPRSF),"DMS-derived PSSM value (averaged), position N3",[4],0
KSTLNPNAKEFNPRSF N5K (KSTLKPNAKEFNPRSF),"DMS-derived PSSM value, position N5",[5],0
KSTLNPNAKEFNPRSF A8P (KSTLNPNPKEFNPRSF),"DMS-derived PSSM value, position A8",[18],0
TLNPNAKEFNPRSF(averaged) N5W (TLNPWAKEFNPRSF),"DMS-derived PSSM value (averaged), position N5",[4],0.0006294
TLNPNAKEFNPRSF(averaged) S13M (TLNPNAKEFNPRMF),"DMS-derived PSSM value (averaged), position S13",[19],0.01383
TLNPNAKEFNPRSFSQ N3T (TLTPNAKEFNPRSFSQ),"DMS-derived PSSM value, position N3",[9],0.01993
TLNPNAKEFNPRSF(averaged) E8V (TLNPNAKVFNPRSF),"DMS-derived PSSM value (averaged), position E8",[1],0.141
KSTLNPNAKEFNPRSF L4R (KSTRNPNAKEFNPRSF),"DMS-derived PSSM value, position L4",[6],0
KSTLNPNAKEFNPRSF S15W (KSTLNPNAKEFNPRWF),"DMS-derived PSSM value, position S15",[11],0.009844
KSTLNPNAKEFNPRSF F16T (KSTLNPNAKEFNPRST),"DMS-derived PSSM value, position F16","prey ATXN2, peptide KSTLNPNAKEFNPRSF, F = wild type",0.02121
TLNPNAKEFNPRSF(averaged) T1R (RLNPNAKEFNPRSF),"DMS-derived PSSM value (averaged), position T1","prey ATXN2, TLNPNAKEFNPRSF(averaged) over the two overlapping peptides, T = wild type",0.04124
KSTLNPNAKEFNPRSF A8D (KSTLNPNDKEFNPRSF),"DMS-derived PSSM value, position A8",[18],0
TLNPNAKEFNPRSF(averaged) S13R (TLNPNAKEFNPRRF),"DMS-derived PSSM value (averaged), position S13",[19],0.00496
TLNPNAKEFNPRSFSQ L2F (TFNPNAKEFNPRSFSQ),"DMS-derived PSSM value, position L2",[10],0.1032
TLNPNAKEFNPRSF(averaged) F14K (TLNPNAKEFNPRSK),"DMS-derived PSSM value (averaged), position F14",[13],0.01179
TLNPNAKEFNPRSFSQ S15D (TLNPNAKEFNPRSFDQ),"DMS-derived PSSM value, position S15",[17],0.0138
TLNPNAKEFNPRSFSQ N3Y (TLYPNAKEFNPRSFSQ),"DMS-derived PSSM value, position N3",[9],0
TLNPNAKEFNPRSFSQ N5R (TLNPRAKEFNPRSFSQ),"DMS-derived PSSM value, position N5",[9],0.004201
TLNPNAKEFNPRSFSQ A6H (TLNPNHKEFNPRSFSQ),"DMS-derived PSSM value, position A6",[3],0
TLNPNAKEFNPRSF(averaged) F9D (TLNPNAKEDNPRSF),"DMS-derived PSSM value (averaged), position F9",[13],0.001318
TLNPNAKEFNPRSF(averaged) E8W (TLNPNAKWFNPRSF),"DMS-derived PSSM value (averaged), position E8",[1],0
